Data published in article PMC3618488 (Chemical communications (Cambridge, England), 2013).
Like-named read-outs stand apart in the source and are kept apart here.

Target: Pseudomonas aeruginosa elastase (LasB) (Pseudomonas aeruginosa, UniProt P14756)
Assay: biochemical
Format: biochemical
Settings: for fold reduction in potency relative to tropolone (3): against LasB, compared with 3

Chain of Pseudomonas aeruginosa elastase (LasB) (P14756 198-498): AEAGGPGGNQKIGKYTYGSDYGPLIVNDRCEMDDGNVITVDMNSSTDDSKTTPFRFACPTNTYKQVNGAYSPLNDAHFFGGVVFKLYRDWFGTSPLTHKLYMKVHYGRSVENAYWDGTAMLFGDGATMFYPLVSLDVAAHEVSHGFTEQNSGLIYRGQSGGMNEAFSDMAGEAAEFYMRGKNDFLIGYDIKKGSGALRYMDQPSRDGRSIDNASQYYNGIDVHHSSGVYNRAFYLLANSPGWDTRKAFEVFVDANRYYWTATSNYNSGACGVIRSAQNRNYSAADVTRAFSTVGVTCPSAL

| Compound | IC50 | fold reduction in potency relative to tropolone (3) | IC50 (read-out: IC50 for LasB inhibition) |
| --- | --- | --- | --- |
| CC(C)c1cccc(=O)c(O)c1 [compound 5, β-thujaplicin] | 1340 ± 370 µM | ~ 3 fold |  |
| Nc1ccc(O)c(=O)cc1 [compound 6, 5-aminotropolone] |  |  | 180 ± 1 µM |
| acetyltropolone [compound 4] |  | ~ 3 fold |  |
